Test results as given in the NIST ThermoML archive (doi:10.1021/acs.jced.8b00786).
Numbers after ± are expanded uncertainties.

Assay: xn = mol fraction of the nth substance listed
Conditions: Liquid; for viscosity: Capillary tube (Ostwald / Ubbelohde) method; for mass density: Vibrating tube method
[1] = 313.15 K, 11290 kPa, x2 = 0.519
[2] = 313.15 K, 12320 kPa, x2 = 0.299
[3] = 313.15 K, 12560 kPa, x2 = 0.199
[4] = 313.15 K, 21910 kPa, x2 = 0.519
[5] = 313.15 K, 23100 kPa, x2 = 0.299
[6] = 313.15 K, 23440 kPa, x2 = 0.199
[7] = 313.15 K, 42900 kPa, x2 = 0.519
[8] = 313.15 K, 44510 kPa, x2 = 0.299
[9] = 313.15 K, 45240 kPa, x2 = 0.199
[10] = 313.15 K, 57150 kPa, x2 = 0.519
[11] = 313.15 K, 58570 kPa, x2 = 0.299
[12] = 313.15 K, 60140 kPa, x2 = 0.199
[13] = 313.15 K, 71140 kPa, x2 = 0.519
[14] = 313.15 K, 73410 kPa, x2 = 0.299
[15] = 313.15 K, 74430 kPa, x2 = 0.199
[16] = 338.15 K, 10860 kPa, x2 = 0.519
[17] = 338.15 K, 11180 kPa, x2 = 0.299
[18] = 338.15 K, 11690 kPa, x2 = 0.199
[19] = 338.15 K, 21260 kPa, x2 = 0.519
[20] = 338.15 K, 21990 kPa, x2 = 0.199
[21] = 338.15 K, 21990 kPa, x2 = 0.299
[22] = 338.15 K, 42140 kPa, x2 = 0.519
[23] = 338.15 K, 42690 kPa, x2 = 0.299
[24] = 338.15 K, 42870 kPa, x2 = 0.199
[25] = 338.15 K, 56660 kPa, x2 = 0.519
[26] = 338.15 K, 57330 kPa, x2 = 0.299
[27] = 338.15 K, 57570 kPa, x2 = 0.199
[28] = 338.15 K, 69970 kPa, x2 = 0.199
[29] = 338.15 K, 70400 kPa, x2 = 0.519
[30] = 338.15 K, 71030 kPa, x2 = 0.299
[31] = 363.15 K, 10740 kPa, x2 = 0.519
[32] = 363.15 K, 10840 kPa, x2 = 0.299
[33] = 363.15 K, 11090 kPa, x2 = 0.199
[34] = 363.15 K, 21180 kPa, x2 = 0.299
[35] = 363.15 K, 21340 kPa, x2 = 0.519
[36] = 363.15 K, 21420 kPa, x2 = 0.199
[37] = 363.15 K, 42180 kPa, x2 = 0.519
[38] = 363.15 K, 42250 kPa, x2 = 0.299
[39] = 363.15 K, 42490 kPa, x2 = 0.199
[40] = 363.15 K, 56170 kPa, x2 = 0.519
[41] = 363.15 K, 56390 kPa, x2 = 0.299
[42] = 363.15 K, 56730 kPa, x2 = 0.199
[43] = 363.15 K, 70120 kPa, x2 = 0.519
[44] = 363.15 K, 70320 kPa, x2 = 0.299
[45] = 363.15 K, 70780 kPa, x2 = 0.199

## CC(C)CCCC(C)CCCC(C)CCCCC(C)CCCC(C)CCCC(C)C (stereo not drawn) [2,6,10,15,19,23-hexamethyltetracosane] + O=C=O
313.15 K, 2790 kPa, x2 = 0.199
  viscosity: 11.4 ± 0.27 mPa·s
  mass density: 796.7 ± 2.4 kg/m3
313.15 K, 3900 kPa, x2 = 0.299
  viscosity: 9.2 ± 0.22 mPa·s
  mass density: 799.1 ± 2.4 kg/m3
313.15 K, 5300 kPa, x2 = 0.519
  viscosity: 5.1 ± 0.14 mPa·s
  mass density: 804.5 ± 2.4 kg/m3
[1]
  viscosity: 5.59 ± 0.15 mPa·s
  mass density: 810.3 ± 2.5 kg/m3
[2]
  viscosity: 10.5 ± 0.25 mPa·s
  mass density: 805.8 ± 2.4 kg/m3
[3]
  viscosity: 13.39 ± 0.32 mPa·s
  mass density: 804.5 ± 2.4 kg/m3
[4]
  viscosity: 6.47 ± 0.18 mPa·s
  mass density: 819.7 ± 2.5 kg/m3
[5]
  viscosity: 12.46 ± 0.3 mPa·s
  mass density: 813.6 ± 2.5 kg/m3
[6]
  viscosity: 16.14 ± 0.39 mPa·s
  mass density: 812.5 ± 2.5 kg/m3
[7]
  viscosity: 8.58 ± 0.24 mPa·s
  mass density: 836.1 ± 2.6 kg/m3
[8]
  viscosity: 17.08 ± 0.42 mPa·s
  mass density: 828.1 ± 2.5 kg/m3
[9]
  viscosity: 22.88 ± 0.57 mPa·s
  mass density: 826.3 ± 2.5 kg/m3
[10]
  viscosity: 10.52 ± 0.3 mPa·s
  mass density: 846 ± 2.6 kg/m3
[11]
  viscosity: 21.56 ± 0.53 mPa·s
  mass density: 836.5 ± 2.6 kg/m3
[12]
  viscosity: 28.7 ± 0.7 mPa·s
  mass density: 834.5 ± 2.6 kg/m3
[13]
  viscosity: 12.5 ± 0.37 mPa·s
  mass density: 854.8 ± 2.6 kg/m3
[14]
  viscosity: 26.51 ± 0.65 mPa·s
  mass density: 844.9 ± 2.6 kg/m3
[15]
  viscosity: 35.87 ± 0.87 mPa·s
  mass density: 841.6 ± 2.6 kg/m3
338.15 K, 3100 kPa, x2 = 0.199
  viscosity: 5.61 ± 0.16 mPa·s
  mass density: 780.2 ± 2.4 kg/m3
338.15 K, 3320 kPa, x2 = 0.299
  viscosity: 4.69 ± 0.12 mPa·s
  mass density: 782.1 ± 2.4 kg/m3
338.15 K, 6440 kPa, x2 = 0.519
  viscosity: 2.96 ± 0.07 mPa·s
  mass density: 787.1 ± 2.4 kg/m3
[16]
  viscosity: 3.18 ± 0.08 mPa·s
  mass density: 791.5 ± 2.4 kg/m3
[17]
  viscosity: 5.36 ± 0.13 mPa·s
  mass density: 788.3 ± 2.4 kg/m3
[18]
  viscosity: 6.41 ± 0.17 mPa·s
  mass density: 787.3 ± 2.4 kg/m3
[19]
  viscosity: 3.58 ± 0.09 mPa·s
  mass density: 801 ± 2.4 kg/m3
[20]
  viscosity: 7.61 ± 0.21 mPa·s
  mass density: 795.1 ± 2.4 kg/m3
[21]
  viscosity: 6.16 ± 0.16 mPa·s
  mass density: 796.2 ± 2.4 kg/m3
[22]
  viscosity: 4.78 ± 0.12 mPa·s
  mass density: 817.7 ± 2.5 kg/m3
[23]
  viscosity: 8.3 ± 0.21 mPa·s
  mass density: 810.4 ± 2.5 kg/m3
[24]
  viscosity: 10.48 ± 0.3 mPa·s
  mass density: 808.7 ± 2.5 kg/m3
[25]
  viscosity: 5.67 ± 0.15 mPa·s
  mass density: 827.7 ± 2.5 kg/m3
[26]
  viscosity: 10.09 ± 0.26 mPa·s
  mass density: 819.2 ± 2.5 kg/m3
[27]
  viscosity: 12.79 ± 0.37 mPa·s
  mass density: 817.1 ± 2.5 kg/m3
[28]
  viscosity: 15.43 ± 0.48 mPa·s
  mass density: 823.5 ± 2.6 kg/m3
[29]
  viscosity: 6.59 ± 0.17 mPa·s
  mass density: 836.4 ± 2.6 kg/m3
[30]
  viscosity: 12.17 ± 0.32 mPa·s
  mass density: 826.9 ± 2.6 kg/m3
363.15 K, 2670 kPa, x2 = 0.199
  viscosity: 3.2 ± 0.08 mPa·s
  mass density: 763.2 ± 2.3 kg/m3
363.15 K, 3820 kPa, x2 = 0.299
  viscosity: 2.86 ± 0.07 mPa·s
  mass density: 766.2 ± 2.3 kg/m3
363.15 K, 7280 kPa, x2 = 0.519
  viscosity: 1.93 ± 0.05 mPa·s
  mass density: 769.5 ± 2.3 kg/m3
[31]
  viscosity: 2.06 ± 0.05 mPa·s
  mass density: 772.7 ± 2.3 kg/m3
[32]
  viscosity: 3.14 ± 0.08 mPa·s
  mass density: 771.7 ± 2.3 kg/m3
[33]
  viscosity: 3.71 ± 0.09 mPa·s
  mass density: 770.2 ± 2.3 kg/m3
[34]
  viscosity: 3.59 ± 0.09 mPa·s
  mass density: 779.2 ± 2.4 kg/m3
[35]
  viscosity: 2.31 ± 0.06 mPa·s
  mass density: 782.5 ± 2.4 kg/m3
[36]
  viscosity: 4.33 ± 0.11 mPa·s
  mass density: 778.2 ± 2.4 kg/m3
[37]
  viscosity: 3 ± 0.08 mPa·s
  mass density: 799.3 ± 2.5 kg/m3
[38]
  viscosity: 4.8 ± 0.12 mPa·s
  mass density: 793.2 ± 2.4 kg/m3
[39]
  viscosity: 5.75 ± 0.15 mPa·s
  mass density: 792.2 ± 2.4 kg/m3
[40]
  viscosity: 3.43 ± 0.09 mPa·s
  mass density: 809.2 ± 2.5 kg/m3
[41]
  viscosity: 5.69 ± 0.14 mPa·s
  mass density: 801.8 ± 2.5 kg/m3
[42]
  viscosity: 6.83 ± 0.18 mPa·s
  mass density: 800.5 ± 2.5 kg/m3
[43]
  viscosity: 4.08 ± 0.11 mPa·s
  mass density: 818 ± 2.5 kg/m3
[44]
  viscosity: 6.81 ± 0.17 mPa·s
  mass density: 809.6 ± 2.5 kg/m3
[45]
  viscosity: 8.08 ± 0.21 mPa·s
  mass density: 807.9 ± 2.5 kg/m3
